Tests used:
Caco-2/TC7 cell lysate = assay: Flavonol conjugate production by Caco-2/TC7 cell free lysate, effect of MK571; format: biochemical, human; conditions: aglycone 40 μM; for Change in rate (%): MK571 50 μM vs control; for Rate +MK571 (conjugate production): MK571 50 μM; for Rate +MK571 (conjugate production) / Rate control (conjugate production): slope (standard error of the slope); for Rate control (conjugate production): no MK571
Protocol: Cells were grown until 21 days post confluent and washed and aspirated as described previously. The cells were then scraped into tubes and these tubes kept on ice at all times throughout the preparation procedure. Homogenisation buffer comprised of sodium phosphate buffer (50 mM adjusted to pH 6.5; 20 mL), two mini protease inhibitor cocktail tablets containing EDTA and perfabloc, dithiothreitol (30.8 mg), alamethacin (20 μL of a 22 μg/mL) solution from T. viride; and MgCl2 (3.5 mg). Cell-free homogenates were prepared by mixing cells with homogenisation buffer (50:50, vol/vol) and vortexing with glass beads in an eppendorf tube three times for 1 min over a 10 min period. To 900 μL of cell free lysate was added 10 μL uridine 5′-diphosphoglucuronic acid (4 mM final concentration) with uridine 5′-diphospho-N-acetyl-glucosamine (dissolved in homogenisation buffer, 2 mM final concentration); 10 μL MK571 (50 mmol/L stock diluted 1:9 with homogenisation buffer) or 10 μL dimethyl sulfoxide blank (diluted 1:9 with homogenisation buffer). The tubes were allowed to warm and once they reached 37 °C, the flavonols were added at the relevant concentration (kaempferol, quercetin or galangin; 10 mmol/L stock in dimethyl sulfoxide diluted 1:1 with homogenisation buffer, plus homogenisation buffer added to create a final volume of 1000 μL) and the tube vortexed briefly. The experiment was stopped by addition of a mixture of 50 μL trifluoracetic acid and 50 μL acetonitrile. Samples were then centrifuged for 10 min at 14,000 × g. The supernatant was removed and analysed via HPLC.

Caco-2/TC7 cells = assay: Flavonol metabolism and transport experiments on Caco-2/TC7 transwell monolayers, effect of MK571; format: cell-based, human; conditions: apical to basolateral ratio of efflux of the conjugate, 60 min, 12-well transwells
Protocol: Cells were grown at 37 °C in a humidified incubator with 5% CO2 in Dulbecco Modified Eagle's Medium (DMEM) containing 1% non-essential amino acids, 1% L-glutamine, 100 IU/mL penicillin and 100 μg/mL streptomycin, 1 g/L glucose, and supplemented with 20% (v/v) heat inactivated fetal calf serum. Cells were passaged at 80% confluency, and seeded at 2–4 × 10^4 cells per cm^2 on 10 cm dishes (growing area 75 cm^2) or 12-well transwells (growing area of 1.1 cm^2). […] Toxicity of MK571 on Caco-2/TC7 cell monolayers was determined through comparison of pre- and post-loading TEER values of wells incubated with MK571.
Flavonol stocks (quercetin, kaempferol, galangin; 10 mM) were prepared in dimethylsulfoxide (DMSO) and stored at −20 °C. MK571 was dissolved in dimethyl sulfoxide (10 mM final concentration) and stored at −20 °C. Prior to the metabolism or transport experiments, cells were aspirated of media and washed three times with phosphate buffered saline (PBS). To foetal calf serum and phenol red-free DMEM was added ascorbic acid at a final concentration of 100 μM as well as MK571 at the desired concentration. For metabolism experiments, 10 mL of this media was added to the cells in 10 cm dishes. For transport experiments using transwells, 0.6 mL of this media was added to the apical compartment of the transwell and 1 mL was added to the basolateral compartment. Control wells received an equivalent dose of dimethyl sulfoxide as the treatment wells. Cells were incubated at 37 °C for 30 min, after which flavonols dissolved in dimethyl sulfoxide (kaempferol, galangin or quercetin) were added to the media of treatment wells at a final concentration of 40 or 100 μM, while control wells were treated with the dimethyl sulfoxide vehicle alone. Concentrations of quercetin were increased to 100 μM because instability of quercetin in media necessitated higher initial loading to maintain adequate cellular and media concentrations for uptake and metabolism of the flavonol. Control and treatment cells were incubated at 37 °C for the periods indicated in the results.
Following the required incubation period, media and cell fractions were harvested and analysed to identify and quantify flavonol metabolites using HPLC. Media was removed from the apical (0.5 mL) and basolateral (0.5 mL) compartments of transwells and added to 25 μL trifluoroacetic acid and 25 μL HPLC grade acetonitrile. Media from 10 cm dishes (1 mL) was removed and added to 50 μL trifluoroacetic acid and 25 μL HPLC grade acetonitrile. Cells were washed three times with cold (room temperature) phosphate buffered saline solution and scraped free of the dish surface. For transwells, 100 μL MilliQ water was added to the cells and the resulting cell suspension pipetted into 10 μL trifluoroacetic acid and 10 μL HPLC grade acetonitrile. For 10 cm dishes, the resulting cell suspension was pipetted into 25 μL trifluoroacetic acid and 25 μL HPLC grade acetonitrile. Samples were either analysed immediately or otherwise stored at −20 °C prior to HPLC analysis. Flavonols were stable during frozen storage and thawing (no significant losses up to 26 weeks).
Media samples were thawed where necessary and then mixed using a vortex mixer, centrifuged for 10 min at 14,000 × g using a micro centrifuge, and the supernatant removed and placed in an HPLC vial for analysis. Cell samples were vortex-mixed and then ultra-sonicated (sonic water bath) for 10 min, vortex mixed again and then centrifuged for 10 min at 14,000 × g using a micro-centrifuge, before removal of supernatant for HPLC analysis. Identification and quantification of individual flavonol metabolites was carried out using liquid chromatography–mass spectrometry and nuclear magnetic resonance analyses, as described previously. […]

| Compound | Change in rate (%) (Caco-2/TC7 cell lysate) | Rate +MK571 (conjugate production) (Caco-2/TC7 cell lysate) | Rate control (conjugate production) (Caco-2/TC7 cell lysate) | Ap:Bl ratio (50 μM MK571) (Caco-2/TC7 cells) | Ap:Bl ratio (No MK571) (Caco-2/TC7 cells) | Ap:Bl ratio (100 μM MK571) (Caco-2/TC7 cells) |
| --- | --- | --- | --- | --- | --- | --- |
| O=C(O)[C@H]1O[C@@H](Oc2c(-c3ccccc3)oc3cc(O)cc(O)c3c2=O)[C@H](O)[C@@H](O)[C@@H]1O [G-3-GlcA, galangin-3-glucuronide] | −63.2% | 25.3 (±2.30) pmol/h | 68.8 (±6.12) pmol/h | 0.35 (±0.091) | 0.24 (±0.033) |  |
| O=C(O)C1OC(Oc2cc(O)cc3oc(-c4ccccc4)c(O)c(=O)c23)C(O)C(O)C1O (centres unmarked) [G-5-GlcA] |  |  |  | 0.30 (±0.024) | 0.19 (±0.020) |  |
| O=C(O)[C@H]1O[C@@H](Oc2cc(O)c3c(=O)c(O)c(-c4ccccc4)oc3c2)[C@H](O)[C@@H](O)[C@@H]1O [G-7-GlcA, galangin-7-glucuronide] | −45.7% | 19.8 (±1.63) pmol/h | 36.5 (±1.49) pmol/h | 0.51 (±0.036) | 0.54 (±0.058) |  |
| O=C(O)[C@H]1O[C@@H](Oc2c(-c3ccc(O)cc3)oc3cc(O)cc(O)c3c2=O)[C@H](O)[C@@H](O)[C@@H]1O [K-3-GlcA, kaempferol-3-glucuronide] | −19.3% | 1.40 (±0.08) pmol/h | 1.73 (±0.16) pmol/h |  |  |  |
| O=C(O)[C@H]1O[C@@H](Oc2ccc(-c3oc4cc(O)cc(O)c4c(=O)c3O)cc2)[C@H](O)[C@@H](O)[C@@H]1O [K-4′-GlcA, kaempferol-4′-glucuronide] |  |  |  | 0.33 (±0.080) | 0.26 (±0.066) | 0.43 (±0.018) |
| O=C(O)[C@H]1O[C@@H](Oc2cc(O)c3c(=O)c(O)c(-c4ccc(O)cc4)oc3c2)[C@H](O)[C@@H](O)[C@@H]1O [K-7-GlcA, kaempferol-7-glucuronide] | −38.2% | 0.69 (±0.02) pmol/h | 1.12 (±0.09) pmol/h | 0.35 (±0.063) | 0.28 (±0.044) | 0.44 (±0.021) |
| O=C(O)[C@H]1O[C@@H](Oc2c(-c3ccc(O)c(O)c3)oc3cc(O)cc(O)c3c2=O)[C@H](O)[C@@H](O)[C@@H]1O [Q-3-GlcA] | −21.8% | 0.83 (±0.14) pmol/h | 1.05 (±0.09) pmol/h |  |  |  |
| O=C(O)[C@H]1O[C@@H](Oc2cc(-c3oc4cc(O)cc(O)c4c(=O)c3O)ccc2O)[C@H](O)[C@@H](O)[C@@H]1O [Q-3′-GlcA] | +25.6% | 2.62 (±0.24) pmol/h | 2.09 (±0.12) pmol/h | 100% apical | 100% apical |  |
| O=C(O)[C@H]1O[C@@H](Oc2ccc(-c3oc4cc(O)cc(O)c4c(=O)c3O)cc2O)[C@H](O)[C@@H](O)[C@@H]1O [Q-4′-GlcA] | +12.1% | 0.28 (±0.03) pmol/h | 0.25 (±0.01) pmol/h | 0.25 (±0.035) | 0.23 (±0.034) |  |
| O=C(O)[C@H]1O[C@@H](Oc2cc(O)c3c(=O)c(O)c(-c4ccc(O)c(O)c4)oc3c2)[C@H](O)[C@@H](O)[C@@H]1O [Q-7-GlcA] | −31.8% | 1.29 (±0.26) pmol/h | 1.89 (±0.16) pmol/h |  |  |  |
| galangin sulphate [G-S] |  |  |  | 9.10 (±0.783) | 13.6 (±1.440) |  |
| kaempferol sulphate [K-S] |  |  |  | 3.92 (±0.646) | 3.02 (±0.230) | 0.14 (±0.006) |
| kaempferol-sulfo-glucuronide [K-S-GlcA] |  | 0.34 (±0.02) pmol/h | 0.54 (±0.04) pmol/h | 0.42 (±0.121) | 0.59 (±0.174) | 0.43 (±0.028) |
